Assay results taken from patent US11633382B2, “Treatment of ER-negative breast cancer with an PDGF-CC inhibitor and anti-estrogen” (Paracrine Therapeutics AB, priority 2015, dated 2023).

Columns and labels:
[1] = system: Human MDA-MB-231 cells; experiment: MDA-MB-231 orthotopic xenograft, anti-PDGF-CC and aromatase inhibitor (Example 2); assay type: in vivo, SCID mice; conditions: A3B6 i.p. twice a week, letrozole 1 mg/dose oral daily; combination p<0.01 vs control, p<0.05 vs A3B6, p<0.001 vs letrozole (FIG. 7)
Excerpt: All therapeutic administrations were open-label.

[2] = system: MMTV-PyMT; Pdgfc+/+ tumors; experiment: Orthotopically transplanted MMTV-PyMT; Pdgfc+/+ (wt) tumors, tamoxifen trial; assay type: in vivo, FVB/N mice; conditions: tamoxifen daily (FIG. 6a)
Protocol: (§1) 3 weeks old FVB/N (common background strain for both MMTV-PyMT and PDGF-C mice) female mice were anesthetized and maintained under Isolfluorane during the surgical procedure. A 4 mm incision under the nipple of the right abdominal mammary gland created a pocket where a 2×2 mm tumor piece (kept on ice, either from MMTV-PyMT or MMTV-PyMT; PDGF-C tumors) was inserted. Suturing was performed with 6-O Ethilon polyamide filament (Ethicon). Pain-killer and anti-inflammatory Rimadyl (5 mg/kg body weight; Orion Pharma Animal Health) was injected i.p. at the end of the surgical procedure and for the following two days. For the therapeutic trial, Tamoxifen (2 mg/mL) was diluted in corn oil (vehicle) and administered via oral gavage daily.
(§2) Mouse mammary cell lines MMTV . . . MMTV/PDGF-C−/− . . . (established in our laboratory) were orthotopically injected into the 4th inguinal mammary gland on FVB/N mice. Furthermore, small tumor pieces (2 mm^3) of MMTV-PyMT and MMTV-PDGF-CC−/− tumors were directly orthotopically transplanted under anesthesia. The mice were subjected to Rimadyl immediately after the surgery and the following two days for analgetics. The tumors were measured twice a week and mice were euthanized as described above. […]

[3] = system: MDA-MB-231 tumors (basal-like subtype); experiment: MDA-MB-231 xenograft in SCID mice, tumor growth and angiogenesis (Example 1); assay type: in vivo; conditions: tamoxifen oral gavage daily with control antibody or A3B6 (FIG. 6c-d)
Protocol: 2×10^6 Human MDA-MB-231 cells were inoculated subcutaneously in immunodeficient mice. […] When tumors were palpable (longest diameter >3 mm), mice were randomized and treated with Tamoxifen (3 mg/kg) or vehicle (corn oil) via oral gavage daily.
In order to investigate whether pharmacological targeting of PDGF-CC as a mono-therapy impacted on breast tumor growth or angiogenesis, we treated SCID mice bearing orthotopically implanted MDA-MB-231 tumors (basal-like subtype) twice-weekly with the PDGF-CC antibody, A3B6 or with control antibody.
The clinically most important distinguishing feature of luminal subtype breast tumors is the expression of ERα, which confers sensitivity to hormone therapy, such as tamoxifen. We next set out to investigate whether targeting of PDGF-CC would convey sensitivity to hormone therapy to previously impervious ER-negative breast tumors of basal-like subtype. Non-transgenic mice bearing orthopically transplanted tumors from MMTV-PyMT; Pdgfc^+/+ or MMTV-PyMT; Pdgfc^lacz/lacz mice were treated daily with tamoxifen starting from […].

[4] = system: ER-negative breast cancer; conditions: ER-negative disease, patients; cited from earlier work
[5] = system: MMTV-PyMT; Pdgfc^lacz/lacz tumors; experiment: Orthotopically transplanted MMTV-PyMT; Pdgfc lacz/lacz tumors, tamoxifen trial; assay type: in vivo, FVB/N mice; conditions: Pdgfc-deficient tumors
Protocol: as §1, §2

Row | Compound | tumor growth, difference between groups [1] | tumor growth rate vs untreated mice [2] | growth of fully established MDA-MB-231 tumors [3] | effect on breast cancer recurrence or mortality [4] | tumor growth ([5]; tamoxifen daily (FIG. 6b)) | tumor volume at the end of the trial ([5]; tamoxifen daily, untreated tumors had grown)
1 | N#Cc1ccc(C(c2ccc(C#N)cc2)n2cncn2)cc1 [letrozole] | no other differences are statistically significant |  |  |  |  | 
2 | CCC(=C(c1ccccc1)c1ccc(OCCN(C)C)cc1)c1ccccc1 [tamoxifen, 2-[4-(1,2-diphenylbut-1-enyl)phenoxy]-N,N-dimethyl-ethanamine] |  | continued to grow at a similar rate | unable to influence the growth | little or no effect | severely growth-retarded | reduced volume
